{"source": "paper PMC12586182", "about": "(Frontiers in Oncology, 2025)", "assay_in_all_cases": "Cell viability assay (ATPlite)", "assay_type_in_all_cases": "cell-based", "key": {"[1]": {"test_system": "CTV-1", "conditions": "Homo sapiens; CTV-1 cell line, 72 hours incubation", "protocol": "(§1) Intracellular ATP content was used as an indirect readout of cell number using the ATPlite 1Step bioluminescence assay (Revvity, Groningen, the Netherlands). Cells were seeded in 384-well plates at an optimized density to ensure unrestricted growth and maximal signal at the end of the experiment. After 24 hours of incubation, the starting cell number was determined by adding ATPlite to each well of a control plate and recording luminescence on an Envision multimode reader (Revvity, Waltham, MA, USA) ([4]). Compounds were diluted in DMSO in √10-fold steps from 10 mmol/L stocks to obtain 9-point dilution series. After further 31.6-fold dilution in 20 mmol/L HEPES (pH 7.4), the dilution series were added in duplicate to the cells in the 384-well plates to determine the effect of the compounds on cell viability. Vehicle-treated controls were included to determine maximal cell proliferation. The final DMSO concentration was 0.4% (v/v) in all wells. After incubation for an additional 72 hours, the ATP content was measured in each well using ATPlite. The luminescent signal in inhibitor-treated wells was normalized to vehicle-treated control wells to determine the percentage viability at each concentration. Cell doublings were determined by relating the cell number of vehicle-treated controls to the starting cell number for each cell line. The viability assay of a cell line was repeated when the cell doubling deviated > 2-fold from the historic doubling as determined by multiple independent experiments. The quality of the complete assay was determined by a parallel test with doxorubicin on two cell lines. IC50 values were calculated by fitting a four-parameter logistic model to the percentage viability values using IDBS XLfit5 (IDBS, Guildford, United Kingdom). All curves were visually inspected and submitted to an F-test as implemented in IDBS XLfit5. Curves with an F-value above 1.5 were invalidated and IC50 values were maximized at the highest concentration."}, "[2]": {"test_system": "TCCSUP", "conditions": "Homo sapiens, TCC-SUP; TCCSUP cell line, 72 hours incubation", "protocol": "as §1"}, "[3]": {"test_system": "AU565", "conditions": "Homo sapiens; AU565 cell line, 72 hours incubation", "protocol": "as §1"}, "[4]": {"test_system": "BT-474", "conditions": "Homo sapiens; BT-474 cell line, 72 hours incubation", "protocol": "as §1"}, "[5]": {"test_system": "AsPC-1", "conditions": "Homo sapiens, ASPC1; AsPC-1 cell line, 72 hours incubation", "protocol": "as §1"}, "[6]": {"test_system": "A-204", "conditions": "Homo sapiens, A204; A-204 cell line, 72 hours incubation", "protocol": "as §1"}, "[7]": {"test_system": "A-498", "conditions": "Homo sapiens, A498; A-498 cell line, 72 hours incubation", "protocol": "as §1"}, "[8]": {"test_system": "DU4475", "conditions": "Homo sapiens, DU-4475; DU4475 cell line, 72 hours incubation", "protocol": "as §1"}, "[9]": {"test_system": "HL-60", "conditions": "Homo sapiens; HL-60 cell line, 72 hours incubation", "protocol": "as §1"}, "[10]": {"test_system": "MDA-MB-231", "conditions": "Homo sapiens; MDA-MB-231 cell line, 72 hours incubation", "protocol": "as §1"}, "[11]": {"test_system": "Hep-G2", "conditions": "Homo sapiens, HepG2; Hep-G2 cell line, 72 hours incubation", "protocol": "as §1"}, "[12]": {"test_system": "11-18", "conditions": "Homo sapiens; 11-18 cell line, 72 hours incubation", "protocol": "as §1"}, "[13]": {"test_system": "SHP-77", "conditions": "Homo sapiens, SHP77; SHP-77 cell line, 72 hours incubation", "protocol": "as §1"}, "[14]": {"test_system": "HEC-1", "conditions": "Homo sapiens; HEC-1 cell line, 72 hours incubation", "protocol": "as §1"}, "[15]": {"test_system": "HEC-6", "conditions": "Homo sapiens; HEC-6 cell line, 72 hours incubation", "protocol": "as §1"}, "[16]": {"test_system": "HCT 15", "conditions": "Homo sapiens; HCT 15 cell line, 72 hours incubation", "protocol": "as §1"}, "[17]": {"test_system": "BL-70", "conditions": "Homo sapiens; BL-70 cell line, 72 hours incubation", "protocol": "as §1"}, "[18]": {"test_system": "Hs 578T", "conditions": "Homo sapiens; Hs 578T cell line, 72 hours incubation", "protocol": "as §1"}, "[19]": {"test_system": "HCT 116", "conditions": "Homo sapiens; HCT 116 cell line, 72 hours incubation", "protocol": "as §1"}, "[20]": {"test_system": "MOLT-4", "conditions": "Homo sapiens; MOLT-4 cell line, 72 hours incubation", "protocol": "as §1"}, "[21]": {"test_system": "K-562", "conditions": "Homo sapiens, K562; K-562 cell line, 72 hours incubation", "protocol": "as §1"}, "[22]": {"test_system": "SK-BR-3", "conditions": "Homo sapiens; SK-BR-3 cell line, 72 hours incubation", "protocol": "as §1"}, "[23]": {"test_system": "786-O", "conditions": "Homo sapiens, 786-0; 786-O cell line, 72 hours incubation", "protocol": "as §1"}, "[24]": {"test_system": "SNU-C2B", "conditions": "Homo sapiens; SNU-C2B cell line, 72 hours incubation", "protocol": "as §1"}, "[25]": {"test_system": "SNU-5", "conditions": "Homo sapiens; SNU-5 cell line, 72 hours incubation", "protocol": "as §1"}, "[26]": {"test_system": "Rh30", "conditions": "Homo sapiens; Rh30 cell line, 72 hours incubation", "protocol": "as §1"}, "[27]": {"test_system": "LS174T", "conditions": "Homo sapiens; LS174T cell line, 72 hours incubation", "protocol": "as §1"}, "[28]": {"test_system": "KMS-11", "conditions": "Homo sapiens; KMS-11 cell line, 72 hours incubation", "protocol": "as §1"}, "[29]": {"test_system": "LNCaP clone FGC", "conditions": "Homo sapiens; LNCaP clone FGC cell line, 72 hours incubation", "protocol": "as §1"}, "[30]": {"test_system": "COLO 829", "conditions": "Homo sapiens; COLO 829 cell line, 72 hours incubation", "protocol": "as §1"}, "[31]": {"test_system": "CAL-27", "conditions": "Homo sapiens; CAL-27 cell line, 72 hours incubation", "protocol": "as §1"}}, "note": "pIC50: −log10 of the molar value.", "data": [{"smiles": "O=C(c1ccc(Oc2ccccc2)cc1Cl)c1c[nH]c2ncnc(N[C@@H]3CC[C@@H](CO)OC3)c12", "note": "[nemtabrutinib]", "values": [{"measurement": "pIC50", "setting": "[1]", "value": 6.15}, {"measurement": "pIC50", "setting": "[2]", "value": 5.11}, {"measurement": "pIC50", "setting": "[3]", "value": 5.49}, {"measurement": "pIC50", "setting": "[4]", "value": 5.51}, {"measurement": "pIC50", "setting": "[5]", "value": 5.42}, {"measurement": "pIC50", "setting": "[6]", "value": 5.17}, {"measurement": "pIC50", "setting": "[7]", "value": 5.19}, {"measurement": "pIC50", "setting": "[8]", "value": 5.95}, {"measurement": "pIC50", "setting": "[9]", "value": 5.66}, {"measurement": "pIC50", "setting": "[10]", "value": 5.59}, {"measurement": "pIC50", "setting": "[11]", "value": 6.01}, {"measurement": "pIC50", "setting": "[12]", "value": 5.58}, {"measurement": "pIC50", "setting": "[13]", "value": 4.84}, {"measurement": "pIC50", "setting": "[14]", "value": 5.34}, {"measurement": "pIC50", "setting": "[15]", "value": 4.65}, {"measurement": "pIC50", "setting": "[16]", "value": 5.24}, {"measurement": "pIC50", "setting": "[17]", "value": 6.30}, {"measurement": "pIC50", "setting": "[18]", "value": 4.94}, {"measurement": "pIC50", "setting": "[19]", "value": 5.78}, {"measurement": "pIC50", "setting": "[20]", "value": 5.16}, {"measurement": "pIC50", "setting": "[21]", "value": 5.59}, {"measurement": "pIC50", "setting": "[22]", "value": 5.73}, {"measurement": "pIC50", "setting": "[23]", "value": 5.17}, {"measurement": "pIC50", "setting": "[24]", "value": 5.53}, {"measurement": "pIC50", "setting": "[25]", "value": 5.09}, {"measurement": "pIC50", "setting": "[26]", "value": 5.26}, {"measurement": "pIC50", "setting": "[27]", "value": 5.76}, {"measurement": "pIC50", "setting": "[28]", "value": 5.33}, {"measurement": "pIC50", "setting": "[29]", "value": "< 4.50"}, {"measurement": "pIC50", "setting": "[30]", "value": 5.81}, {"measurement": "pIC50", "setting": "[31]", "value": 5.89}]}]}
